Source: patent US20050063989A1, “Ion channel hybrid proteins as electrical sensors and use thereof” (COMMISSARIAT A L'ENERGIE ATOMIQUE, priority 2003, published 2005)

Key:
Xenopus oocytes = assay: Density of active fusion channels: ATP-inhibitable current after patch excision; type: cell-based, Xenopus laevis
Experimental: (§1) mRNAs coding Kir6.2 (˜2 ng) and wild-type SURs (˜6 ng) or mRNAs coding the fusion constructs (˜8 ng) were co-injected into defoliculated Xenopus laevis oocytes. Injected oocytes were stored at 19° C. in Barth's solution (in mM: 1 KCl, 0.82 MgSO4, 88 NaCl, 2.4 NaHCO3, 0.41 CaCl2, 0.3 Ca(NO3)2, 16 HEPES, pH 7.4) with 100 U/ml penicillin, 100 μg/ml streptomycin, and 100 μg/ml gentamycin.
(§2) Two to 15 days after injection, oocytes were devitellinized and recombinant KATP channels were characterized by the patch-clamp technique in the excised inside-out configuration (Hamill et al., Arch. Eur. J. Physiol., 1981, 391, 85-100). Patch pipettes (2-10 MΩ) contained 154 mM K^+, 146 mM Cl^−, 5 MM Mg^2+, and 10 mM PIPES (pH 7.1). The cytoplasmic face of the patch was bathed in solutions which all contained 174 mM K^+, 40 mM Cl^−, 1 mM EGTA, 1 Mg^2+, 10 mM PIPES (pH 7.1), and methanesulfonate (approximately, 160 mM, depending on the ATP and ADP amounts added—as the remaining anions. ATP and ADP (potassium salt; Sigma), SR47063 (20 mM stock in DMSO; Sanofi Recherche), diazoxide (100 mM stock in DMSO; Sigma) and P1075 (20 mM stock in DMSO; Leo Pharmaceutical Products) were added as specified. The membrane potential was maintained at −50 mV. Experiments were conducted at room temperature (22-24° C.).
(§3) Applications of the various solutions to the intracellular face of the patch was performed using a RSC-100 rapid-solution-changer (Bio-Logic). Analog signals were filtered at 300 Hz and sampled at 1 kHz. Slow fluctuations of the no-channel-open baseline of the signal were removed by interactive fitting of the baseline with a spline curve and subtraction of this fit from the signal. Acquisition, analysis, and presentation were performed with in-house software.

YCF1-Kir6.2ΔC36 = target: T1, YCF1-Kir6.2ΔC36 (UniProt P39109+Q61743); assay: Inside-out patch-clamp of YCF1-Kir6.2ΔC36 channels expressed in Xenopus oocytes; type: cell-based, yeast YCF1, mouse Kir6.2
T1 construct: expressed in transfected cells; host or cells: Xenopus laevis oocytes injected with in vitro transcribed mRNA; excised inside-out patches
Source text: (§4) Removal of the RKR endoplasmic reticulum retention signal of Kir6.2 was accomplished either by deletion of the last 26 or 36 residues of the C-terminal extremity (Tucker et al., Nature, 1997, 387: 179-183) through introduction of a premature stop codon at the correct position, or by site-directed mutagenesis of RKR to RAA (i.e., K370A and R371A). The resulting constructs, named Kir6.2Δ26, Kir6.2ΔC36, and Kir6.2KR370AA, were created by mutagenesis amplification (QuickChange site-directed mutagenesis kit, Stratagene). The sequences corresponding to the different constructs are as presented in Table 1: SUR2A-Kir6.2ΔC36 (SEQ ID NO: 3), MRP1-Kir6.2ΔC36 (SEQ ID NO: 4), YCF1-Kir6.2ΔC36 (SEQ ID NO: 5) and MRP1-Kir6.2[KR370AA] (SEQ ID NO: 6).
as §1
(§5) Two to 15 days after injection, oocytes were devitellinized and recombinant KATP channels were characterized by the patch-clamp technique in the excised inside-out configuration (Hamill et al., Arch. Eur. J. Physiol., 1981, 391, 85-100). […]

SUR2A-Kir6.2 channels = target: T2, SUR2A-Kir6.2 channels (Rattus norvegicus, UniProt Q63563); assay: Inside-out patch-clamp of SUR2A-Kir6.2 fusion channels expressed in Xenopus oocytes; type: cell-based, mouse Kir6.2; conditions: for Effect of K-channel opener on SUR2A-Kir6.2 channels: opener 10 μM, in the presence of partially-inhibiting ATP (100 μM), -50 mV
T2 construct: expressed in transfected cells; host or cells: Xenopus laevis oocytes injected with in vitro transcribed mRNA; excised inside-out patches
Experimental: as §1, §2, §3

MRP1-Kir6.2 channels = target: T3, MRP1-Kir6.2 channels (Homo sapiens, UniProt P33527, M117T); assay: Inside-out patch-clamp of MRP1-Kir6.2 fusion channels expressed in Xenopus oocytes; type: cell-based, mouse Kir6.2
T3 construct: expressed in transfected cells; host or cells: Xenopus laevis oocytes injected with in vitro transcribed mRNA; excised inside-out patches
Experimental: as §1
as §2, with “C.). […]” for “C.).”

SUR1-Kir6.2 channels = target: T4, SUR1-Kir6.2 channels (UniProt Q09427+Q61743); assay: Inside-out patch-clamp of SUR1-Kir6.2 fusion channels expressed in Xenopus oocytes; type: cell-based, hamster SUR1, mouse Kir6.2
T4 construct: expressed in transfected cells; host or cells: Xenopus laevis oocytes injected with in vitro transcribed mRNA; excised inside-out patches
Experimental: as §1, §2, §3

MRP1-Kir6.2KR370AA = assay: Inside-out patch-clamp of MRP1-Kir6.2KR370AA channels expressed in Xenopus oocytes; type: cell-based, human MRP1, mouse Kir6.2; conditions: compared with MRP1-Kir6.2
Source text: as §4, §1, §5

Kir6.2ΔC36 channels = target: T5, Kir6.2ΔC36 channels (Mus musculus, UniProt Q61743); assay: Inside-out patch-clamp of Kir6.2ΔC36 channels expressed alone in Xenopus oocytes; type: cell-based
T5 construct: expressed in transfected cells; host or cells: Xenopus laevis oocytes; excised inside-out patches
T5 sequence (Q61743 1-354 limits assumed): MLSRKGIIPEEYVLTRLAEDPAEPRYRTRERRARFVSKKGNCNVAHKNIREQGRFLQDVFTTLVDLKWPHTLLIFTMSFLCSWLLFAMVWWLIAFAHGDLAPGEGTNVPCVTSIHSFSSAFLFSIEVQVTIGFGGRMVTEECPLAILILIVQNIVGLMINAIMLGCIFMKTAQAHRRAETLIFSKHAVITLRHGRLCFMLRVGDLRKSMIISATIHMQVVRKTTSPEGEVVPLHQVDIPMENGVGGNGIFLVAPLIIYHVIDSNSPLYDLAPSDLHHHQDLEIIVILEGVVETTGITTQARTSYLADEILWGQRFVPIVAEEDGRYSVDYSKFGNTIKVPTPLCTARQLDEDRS
Source text: as §4, §1, §5

[1] = ADP at submillimolar concentrations
[2] = total current blocked by 2 mM ATP after patch excision

T4 sequence (Q09427+Q61743 fused): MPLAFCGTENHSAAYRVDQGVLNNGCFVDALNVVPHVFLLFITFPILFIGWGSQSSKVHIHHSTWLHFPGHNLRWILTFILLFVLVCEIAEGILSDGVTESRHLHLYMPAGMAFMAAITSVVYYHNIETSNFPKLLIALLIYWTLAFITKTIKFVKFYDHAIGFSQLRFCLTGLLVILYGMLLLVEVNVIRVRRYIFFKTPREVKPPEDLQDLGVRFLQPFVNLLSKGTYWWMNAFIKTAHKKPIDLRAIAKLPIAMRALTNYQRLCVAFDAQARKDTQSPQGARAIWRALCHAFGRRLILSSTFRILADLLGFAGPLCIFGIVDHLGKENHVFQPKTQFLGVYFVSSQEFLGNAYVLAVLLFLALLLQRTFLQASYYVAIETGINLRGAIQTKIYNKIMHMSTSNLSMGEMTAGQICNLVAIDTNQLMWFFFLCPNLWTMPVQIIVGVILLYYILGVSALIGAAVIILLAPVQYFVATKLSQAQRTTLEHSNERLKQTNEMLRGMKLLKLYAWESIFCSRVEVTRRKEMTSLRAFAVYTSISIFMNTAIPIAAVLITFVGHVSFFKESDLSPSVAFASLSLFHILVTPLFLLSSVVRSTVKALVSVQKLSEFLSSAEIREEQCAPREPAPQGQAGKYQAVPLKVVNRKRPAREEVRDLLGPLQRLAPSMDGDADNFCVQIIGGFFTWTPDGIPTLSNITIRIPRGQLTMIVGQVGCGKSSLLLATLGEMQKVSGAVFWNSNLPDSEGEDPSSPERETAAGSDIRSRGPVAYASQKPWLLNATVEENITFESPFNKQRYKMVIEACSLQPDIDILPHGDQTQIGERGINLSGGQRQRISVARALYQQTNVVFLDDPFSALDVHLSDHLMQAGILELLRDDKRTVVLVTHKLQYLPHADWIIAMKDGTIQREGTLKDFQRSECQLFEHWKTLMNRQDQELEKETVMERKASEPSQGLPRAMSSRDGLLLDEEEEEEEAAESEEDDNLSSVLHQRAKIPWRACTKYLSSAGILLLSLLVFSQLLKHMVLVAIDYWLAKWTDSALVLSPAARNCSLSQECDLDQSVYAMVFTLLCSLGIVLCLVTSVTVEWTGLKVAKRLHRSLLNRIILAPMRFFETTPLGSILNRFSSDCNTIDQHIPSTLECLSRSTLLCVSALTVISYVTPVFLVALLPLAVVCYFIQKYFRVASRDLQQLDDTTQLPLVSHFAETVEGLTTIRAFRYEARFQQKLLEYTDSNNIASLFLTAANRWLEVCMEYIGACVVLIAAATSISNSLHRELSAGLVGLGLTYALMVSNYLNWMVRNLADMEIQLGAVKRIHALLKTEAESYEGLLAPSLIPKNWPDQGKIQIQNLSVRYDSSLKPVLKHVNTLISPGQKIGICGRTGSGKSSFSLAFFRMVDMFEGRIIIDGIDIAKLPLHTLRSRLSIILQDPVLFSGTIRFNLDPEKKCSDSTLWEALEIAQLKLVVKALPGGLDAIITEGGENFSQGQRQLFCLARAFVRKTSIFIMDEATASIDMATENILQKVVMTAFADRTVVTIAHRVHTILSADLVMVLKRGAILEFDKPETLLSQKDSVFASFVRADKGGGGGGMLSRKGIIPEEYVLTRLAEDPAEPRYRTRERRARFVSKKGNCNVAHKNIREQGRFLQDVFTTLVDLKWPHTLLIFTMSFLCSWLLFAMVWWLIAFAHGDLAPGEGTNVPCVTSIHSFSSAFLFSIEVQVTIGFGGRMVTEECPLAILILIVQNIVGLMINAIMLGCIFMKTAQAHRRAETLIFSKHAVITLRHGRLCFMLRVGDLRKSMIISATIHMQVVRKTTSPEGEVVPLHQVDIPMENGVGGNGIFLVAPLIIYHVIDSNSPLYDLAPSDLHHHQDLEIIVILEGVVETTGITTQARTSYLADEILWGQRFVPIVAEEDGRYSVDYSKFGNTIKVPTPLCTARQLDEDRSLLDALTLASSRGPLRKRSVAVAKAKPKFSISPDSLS
T2 sequence (Q63563 with tags, fused parts or gaps): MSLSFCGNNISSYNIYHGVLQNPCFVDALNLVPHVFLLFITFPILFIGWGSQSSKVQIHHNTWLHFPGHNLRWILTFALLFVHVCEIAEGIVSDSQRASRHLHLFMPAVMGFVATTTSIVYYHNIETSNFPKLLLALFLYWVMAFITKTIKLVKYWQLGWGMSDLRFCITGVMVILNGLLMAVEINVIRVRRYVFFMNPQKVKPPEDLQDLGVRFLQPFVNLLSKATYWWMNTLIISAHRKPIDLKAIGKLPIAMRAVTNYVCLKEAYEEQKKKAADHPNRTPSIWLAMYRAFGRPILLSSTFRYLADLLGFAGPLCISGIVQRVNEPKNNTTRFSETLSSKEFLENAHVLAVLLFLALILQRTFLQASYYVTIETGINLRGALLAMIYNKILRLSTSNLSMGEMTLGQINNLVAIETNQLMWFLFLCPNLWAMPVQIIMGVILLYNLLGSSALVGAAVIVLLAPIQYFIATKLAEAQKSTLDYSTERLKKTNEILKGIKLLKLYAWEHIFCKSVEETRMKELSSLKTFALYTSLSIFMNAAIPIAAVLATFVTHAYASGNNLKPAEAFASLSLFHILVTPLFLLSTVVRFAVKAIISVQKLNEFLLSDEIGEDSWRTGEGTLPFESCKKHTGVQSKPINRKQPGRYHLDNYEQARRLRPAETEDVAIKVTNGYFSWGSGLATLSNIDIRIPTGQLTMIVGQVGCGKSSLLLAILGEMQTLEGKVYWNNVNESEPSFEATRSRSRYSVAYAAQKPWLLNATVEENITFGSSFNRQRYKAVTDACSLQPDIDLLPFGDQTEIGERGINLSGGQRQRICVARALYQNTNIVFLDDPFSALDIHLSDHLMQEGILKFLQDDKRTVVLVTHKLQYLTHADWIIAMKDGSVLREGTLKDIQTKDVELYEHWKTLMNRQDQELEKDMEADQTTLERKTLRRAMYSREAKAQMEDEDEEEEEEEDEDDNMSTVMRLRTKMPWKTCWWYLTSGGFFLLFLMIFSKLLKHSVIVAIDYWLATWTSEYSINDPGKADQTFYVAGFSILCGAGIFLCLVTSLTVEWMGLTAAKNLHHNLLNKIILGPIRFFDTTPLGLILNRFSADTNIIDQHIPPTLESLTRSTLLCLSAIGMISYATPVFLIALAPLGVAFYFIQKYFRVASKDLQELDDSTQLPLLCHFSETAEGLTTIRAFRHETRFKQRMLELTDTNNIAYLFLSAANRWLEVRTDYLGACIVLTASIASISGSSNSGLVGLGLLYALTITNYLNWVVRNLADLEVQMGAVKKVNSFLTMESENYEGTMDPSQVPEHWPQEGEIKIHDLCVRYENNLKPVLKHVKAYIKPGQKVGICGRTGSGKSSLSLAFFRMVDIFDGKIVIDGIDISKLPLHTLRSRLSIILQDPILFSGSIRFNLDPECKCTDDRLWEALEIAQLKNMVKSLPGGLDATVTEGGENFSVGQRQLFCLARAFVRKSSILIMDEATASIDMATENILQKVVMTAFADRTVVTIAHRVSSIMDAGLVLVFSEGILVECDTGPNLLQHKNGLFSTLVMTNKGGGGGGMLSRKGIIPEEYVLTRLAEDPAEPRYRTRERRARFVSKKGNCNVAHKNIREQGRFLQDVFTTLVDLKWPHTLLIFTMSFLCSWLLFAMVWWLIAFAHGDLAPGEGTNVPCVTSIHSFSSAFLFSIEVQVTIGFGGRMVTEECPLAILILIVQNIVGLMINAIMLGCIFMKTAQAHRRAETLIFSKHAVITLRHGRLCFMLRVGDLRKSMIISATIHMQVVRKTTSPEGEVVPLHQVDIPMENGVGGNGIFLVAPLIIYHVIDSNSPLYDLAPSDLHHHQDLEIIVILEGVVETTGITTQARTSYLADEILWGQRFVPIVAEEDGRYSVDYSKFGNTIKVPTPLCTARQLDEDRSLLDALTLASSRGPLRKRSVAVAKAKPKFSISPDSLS

In the case of “YCF1-Kir6.2ΔC36: YCF1-Kir6.2 fusion with last 36 residues truncated to remove the RKR signal”, the “ATP-inhibitable current of the construct after patch excision” value (Xenopus oocytes) is reported as “noticeably small compared to the other constructs”.
`Nc1ncnc2c1ncn2[C@@H]1O[C@H](COP(=O)(O)OP(=O)(O)OP(=O)(O)O)[C@@H](O)[C@H]1O` [ATP] was tested, and the “Effect of ATP on YCF1-Kir6.2ΔC36 currents” value (YCF1-Kir6.2ΔC36) was “ATP-sensitive currents”, the “Sensitivity of SUR2A-Kir6.2 channels to ATP” value (SUR2A-Kir6.2 channels) was “high sensitivity” and the “Sensitivity of MRP1-Kir6.2 channels to inhibition by ATP” value (MRP1-Kir6.2 channels) was “less sensitive to inhibition by ATP than either SUR-Kir6.2 fusions or wild-type channels”. The “Sensitivity of SUR1-Kir6.2 channels to ATP” value (SUR1-Kir6.2 channels) was “high sensitivity” and the “Sensitivity of MRP1-Kir6.2KR370AA to ATP” value (MRP1-Kir6.2KR370AA) was “could not be distinguished from the non-mutated MRP1-Kir6.2 protein”.
For `CC1(C)C=C(n2ccccc2=NC#N)c2cc([N+](=O)[O-])ccc2O1` [SR47063], the “Effect of K-channel opener on SUR2A-Kir6.2 channels” value (SUR2A-Kir6.2 channels) was “activated”.
For `Nc1ncnc2c1ncn2[C@@H]1O[C@H](COP(=O)(O)OP(=O)(O)O)[C@@H](O)[C@H]1O` [ADP], the “Effect of ADP on SUR2A-Kir6.2 fusion channels” value (SUR2A-Kir6.2 channels; [1]) was “activation”, the “Effect of ADP on MRP1-Kir6.2 currents” value (MRP1-Kir6.2 channels; ADP 100 μM and 300 μM, in the presence of 100 μM ATP) was “reduced in a dose-dependent manner” and the “Effect of ADP on Kir6.2ΔC36 (SUR-less) channels” value (Kir6.2ΔC36 channels) was “inhibited”. For the same compound, the “Effect of ADP on SUR1-Kir6.2 fusion channels” value (SUR1-Kir6.2 channels; [1]) was “activation” and the “Sensitivity of MRP1-Kir6.2KR370AA to ADP” value (MRP1-Kir6.2KR370AA) was “could not be distinguished from the non-mutated MRP1-Kir6.2 protein”.
For `CC1=NS(=O)(=O)c2cc(Cl)ccc2N1` [diazoxide], the “Effect of opener on SUR1-Kir6.2 channels” value (SUR1-Kir6.2 channels; diazoxide 300 μM) was “activated”.
For “YCF1-Kir6.2: fusion of yeast YCF1 with mouse Kir6.2, hexaglycine spacer”, the “ATP-inhibitable current of the construct after patch excision” value (Xenopus oocytes) was “no detectable exogenous current”.
`CCC(C)(C)N=C(NC#N)Nc1cccnc1` [P1075] was tested, and the “Effect of K-channel opener on SUR2A-Kir6.2 channels” value (SUR2A-Kir6.2 channels) was “activated”.
In the case of “MRP1-Kir6.2: fusion of human MRP1 C-terminus to mouse Kir6.2 N-terminus with hexaglycine spacer”, the “Patch current, fold lower than SUR1-Kir6.2” value (Xenopus oocytes; [2]) is reported as 7 fold and the “Patch current, fold lower than SUR2A-Kir6.2” value (Xenopus oocytes; [2]) is reported as 5 fold.
